In patent US20160106719A1, “Transplantation Adjuvant in Cell Therapy Using Neural Progenitor Cells” (SUMITOMO DAINIPPON PHARMA CO., LTD., priority 2013, published 2016):

Legend:
[1] = tested on: re-aggregated PSA-NCAM+ cells (neural progenitor cells derived from mouse iPS cell line 440A3); assay: In vitro differentiation of mouse iPS cell-derived neural progenitor cells into dopaminergic neurons (immunocytochemistry for marker molecules); assay type: cell-based; conditions: for ratio of TH+ cells: day 10 to 14, control 5.2±1.1%
Method: DMEM contained 1% fetal bovine serum (FBS), 5% knockout serum replacement (KSR; manufactured by Invitrogen), 0.1 mM non-essential amino acids, 1 mM sodium pyruvate, 0.1 mM 2-mercaptoethanol (2-ME; manufactured by Invitrogen), 2000 U/ml leukemia inhibitory factor (manufactured by Invitrogen), and 1.5 μg/ml puromycin. In order to differentiate and induce the iPS cells into neural cells, serum-free floating culture of embryoid bodies-like aggregates (SFEB) was employed. Specifically, aggregates of the 440A3 cells were separated into individual cells by using 0.25% trypsin/1 mM EDTA (ethylenediaminetetraacetic acid), and the resultant cells were seeded in a 96-well low adhesion plate (product name: Lipidure-Coat Plate A-US96, manufactured by NOF Corporation) at a concentration (cell density) of 3000 cells/well. Thereafter, re-aggregation of the 440A3 cells was induced in a differentiation medium containing GMEM (Glasgow Minimum Essential Medium), 5% KSR, 0.1 mM non-essential amino acids, 1 mM sodium pyruvate and 0.1 mM 2-ME, and this day was defined as day 0 (FIG. 1). During this differentiation process, various factors were added to the differentiation medium for inducing midbrain dopaminergic phenotypes as illustrated in FIG. 1. Specifically, from day 3 to day 7 after starting the SFEB, 20 ng/ml of mouse FGF-8b (manufactured by R & D Systems) was added, from day 4 to day 7 after starting the SFEB, 10 ng/ml of recombinant mouse sonic hedgehog (C25I1) N-terminus (manufactured by R & D Systems) was added, and on and after day 7 after starting the SFEB, 1% N-2 supplement (manufactured by Gibco) and 200 nM ascorbic acid were added. The KSR was removed from the differentiation medium on day 7 after starting the SFEB.
On day 9 after starting the SFEB, the 440A3 cells were washed with phosphate buffered saline (PBS(-)) twice. Thereafter, the 440A3 cells were dissociated into single cells by five-minute incubation performed at 37° C. by using Accumax (manufactured by Innovate Cell Technologies, product name). The cells were collected with a FACS buffer. The FACS buffer was constituted by PBS(-) containing 2% FBS, 20 mM D-glucose and 1% penicillin/streptomycin (P/S, manufactured by Invitrogen). The collected cells were mechanically dissociated into a single cell suspension by a gentle pipetting operation.
Next, the resultant cells were incubated with a mouse anti-PSA-NCAM antibody (dilution rate of 1:200, manufactured by Millipore) at 4° C. for about 30 minutes. Thereafter, a washing operation using a centrifuge was performed twice, and the resultant cells were further incubated for 30 minutes with a secondary antibody of a donkey anti-mouse IgG (dilution rate of 1:400, manufactured by Invitrogen) labeled with AlexaFluor 594. Dead cells and cell debris were excluded by using 7-aminoactinomycin-D (7-AAD, manufactured by BD Pharmigen) stain. The remaining living cells were suspended again at a final concentration (cell density) of 1×10^7 cells/ml. Cell sorting was conducted by using a FACSAria II cell sorter (manufactured by Becton Dickinson And Company) equipped with a 488 nm argon laser, a 633 nm helium-neon laser, a 100 μm nozzle and a FACSDiva software program. A PSA-NCAM positive rate was determined on the basis of a negative control not using a primary antibody.
After the cell sorting, in order to induce the reaggregation of the cells, a PSA-NCAM^+ cell group was seeded in a DMEM/F12 medium (manufactured by Wako Pure Chemical Industries, Ltd.) in a 96-well plate at a concentration (cell density) of 20000 cells/well. The DMEM/F12 medium contained 1% N-2 supplement, 200 nM ascorbic acid, 2% B27 supplement (manufactured by Invitrogen), 0.5 mM L-glutamine and 1% P/S. In order to prevent apoptosis, a ROCK inhibitor, Y-27632 (manufactured by Wako Pure Chemical Industries, Ltd.), was used at a concentration of 30 μM during the cell sorting process and the following overnight cultivation. […]

[2] = tested on: TH+ neurons derived from mouse iPS cells; assay: In vitro survival of TH+ neurons with caspase 3 expression as index of apoptosis; assay type: cell-based; conditions: control 18.0±5.9%; no significant difference among four groups
Method: After the cell sorting, in order to induce the reaggregation of the cells, a PSA-NCAM^+ cell group was seeded in a DMEM/F12 medium (manufactured by Wako Pure Chemical Industries, Ltd.) in a 96-well plate at a concentration (cell density) of 20000 cells/well. The DMEM/F12 medium contained 1% N-2 supplement, 200 nM ascorbic acid, 2% B27 supplement (manufactured by Invitrogen), 0.5 mM L-glutamine and 1% P/S. In order to prevent apoptosis, a ROCK inhibitor, Y-27632 (manufactured by Wako Pure Chemical Industries, Ltd.), was used at a concentration of 30 μM during the cell sorting process and the following overnight cultivation. On day 10 after starting the SFEB, any one of valproic acid (VPA) (manufactured by Sigma-Aldrich), zonisamide (ZNS) sodium salt (manufactured by Sumitomo Dainippon Pharma Co., Ltd.), 17β estradiol (E2) (manufactured by Sigma-Aldrich), a glial cell line derived neurotrophic factor (GDNF) (manufactured by R & D Systems) and PBS(-) was added to the medium for 4 days. Each of VPA, ZNS and E2 was used at three different concentrations. Specifically, the concentration of VPA was 0.01 mM, 0.1 mM or 1 mM, the concentration of ZNS was 1 μM, 10 μM or 100 μM, and the concentration of E2 was 1 nM, 10 nM or 100 nM. GDNF was added at a concentration of […] to be used as a positive control. […]

CCCC(CCC)C(=O)[O-].[Na+] [VPA, sodium 2-propylpentanoate]
ratio of TH+ cells ([1]; VPA 0.01 mM): 12.1±1.5% | ratio of TH+ FOXA2+ cells ([1]; VPA 0.1 mM, control 0.25±0.22%): 1.00±0.58% | ratio of TH+ NURR1+ cells ([1]; VPA 0.1 mM, control 0.37±0.32%): 1.00±0.70% | ratio of TH+ cells ([1]; VPA 0.1 mM): 11.7±0.4% | ratio of dopaminergic neurons undergoing apoptosis (TH+ neurons expressing caspase 3) [2]: low
